{"source": "patent EP0750618B1", "about": "“OXAZOLIDINONE DERIVATIVES AND PHARMACEUTICAL COMPOSITIONS CONTAINING THEM” (priority 1994, dated 1995)", "key": {"[1]": {"system": "Staphylococcus aureus (UC 9213)", "assay": "Murine Assay procedure (in vivo), survival after intraperitoneal infection", "settings": "UC9213, 144 h, oral administration one hour and five hours after infection, female mice infected i.p. with S. aureus UC 9213, survival over six days, probit analysis", "protocol": "Groups of female mice (six mice of 18-20 grams each) were injected intraperitoneally with Staphylococcus aureus (UC 9213) bacteria which were thawed just prior to use and suspended in brain heart infusion with 4% brewer's yeast (Staphylococcus aureus) or brain heart infusion (Streptococcus species). Antibiotic treatment at six dose levels per drug (compound) was administered one hour and five hours after infection by either oral intubation or subcutaneous routes. Survival was observed daily for six days. ED50 values based on mortality ratios were calculated using probit analysis."}, "[2]": {"system": "Staphylococcus epidermidis (UC 12084)", "assay": "MIC test, standard agar dilution method", "format": "cell-based", "settings": "UC12084, incubated overnight at 35°C, read-out: Minimum Inhibitory Concentrations (MIC) S. enidermidis"}, "[3]": {"system": "Streptococcus pyogenes (UC 152)", "assay": "MIC test, standard agar dilution method", "settings": "UC152, read-out: Minimum Inhibitory Concentrations (MIC) S. pyogenes"}, "Staphylococcus aureus": {"system": "Staphylococcus aureus", "assay": "MIC test, standard agar dilution method"}, "[4]": {"system": "Mycobacterium tuberculosis", "assay": "MIC test, standard agar dilution method", "format": "cell-based", "settings": "read-out: Minimum Inhibitory Concentrations (MIC) M. tuberculosis"}, "[5]": {"settings": "UC9213, read-out: Minimum Inhibitory Concentrations (MIC) S. aureus"}, "[6]": {"settings": "UC9218, read-out: Minimum Inhibitory Concentrations (MIC) S. aureus"}}, "note": "Where two headings read alike, the source gives them in different places.", "data": [{"smiles": "CC(=O)NC[C@H]1CN(c2ccc(N3CCC(=O)CC3)c(F)c2)C(=O)O1", "note": "[Compound No. 7, (S)-N-{3-[3-fluoro-4-(4-oxo-piperidin-1-yl)-phenyl]-2-oxo-oxazolidin-5-ylmethyl}-acetamide]", "values": [{"measurement": "ED50", "setting": "[1]", "result": 8.1, "unit": "mg/kg"}, {"measurement": "MIC", "setting": "[2]", "result": 0.5, "unit": "µg/mL"}, {"measurement": "MIC", "setting": "[3]", "result": 2, "unit": "µg/mL"}, {"measurement": "MIC", "setting": "Staphylococcus aureus; [5]", "result": 2, "unit": "µg/mL"}]}, {"smiles": "COC(=O)NC1CCN(c2ccc(N3C[C@H](CNC(C)=O)OC3=O)cc2F)CC1", "note": "[Compound No. 30, (S)-N-{3-[3-fluoro-4-(4-methoxycarbonylamino-piperidin-1-yl)-phenyl]-2-oxo-oxazolidin-5-ylmethyl}-acetamide]", "values": [{"measurement": "ED50", "setting": "[1]", "result": 2.8, "unit": "mg/kg"}, {"measurement": "MIC", "setting": "[2]", "result": 2, "unit": "µg/mL"}, {"measurement": "MIC", "setting": "[3]", "result": 2, "unit": "µg/mL"}, {"measurement": "MIC", "setting": "Staphylococcus aureus; [5]", "result": 4, "unit": "µg/mL"}]}, {"smiles": "CCOC(=O)C1CCN(c2ccc(N3C[C@H](CNC(C)=O)OC3=O)cc2F)CC1", "note": "[Compound No. 1, (S)-1-{4-[5-(acetylamino-methyl)-2-oxo-oxazolidin-3-yl]-2-fluoro-phenyl}-piperidine-4-carboxylic acid ethyl ester]", "values": [{"measurement": "MIC", "setting": "[2]", "result": 2, "unit": "µg/mL"}, {"measurement": "MIC", "setting": "[4]", "result": 1, "unit": "µg/mL"}, {"measurement": "MIC", "setting": "[3]", "result": 2, "unit": "µg/mL"}, {"measurement": "MIC", "setting": "Staphylococcus aureus; [6]", "result": 8, "unit": "µg/mL"}]}, {"smiles": "COC(=O)ON=C1CCN(c2ccc(N3C[C@H](CNC(C)=O)OC3=O)cc2F)CC1", "note": "[compound 38, (S)-N-{3-[3-fluoro-4-(4-methoxycarbonyloxyimino-piperidin-1-yl)-phenyl]-2-oxo-oxazolidin-5-ylmethyl}-acetamide]", "values": [{"measurement": "MIC", "setting": "[2]", "result": 0.5, "unit": "µg/mL"}, {"measurement": "MIC", "setting": "[3]", "result": 1, "unit": "µg/mL"}, {"measurement": "MIC", "setting": "Staphylococcus aureus; [5]", "result": 2, "unit": "µg/mL"}]}, {"smiles": "CC(=O)NC[C@H]1CN(c2ccc(N3CCC(=NO)CC3)c(F)c2)C(=O)O1", "note": "[Compound No. 11, (S)-N-{3-[3-fluoro-4-(4-hydroxyimino-piperidin-1-yl)-phenyl]-2-oxo-oxazolidin-5-ylmethyl}-acetamide]", "values": [{"measurement": "ED50", "setting": "[1]", "result": 8.2, "unit": "mg/kg"}, {"measurement": "MIC", "setting": "[2]", "result": 1, "unit": "µg/mL"}, {"measurement": "MIC", "setting": "[3]", "result": 1, "unit": "µg/mL"}, {"measurement": "MIC", "setting": "Staphylococcus aureus; [5]", "result": 2, "unit": "µg/mL"}]}, {"smiles": "COC(=O)[C@H]1CN(c2ccc(N3CC(CNC(C)=O)OC3=O)cc2F)CCC1=O", "note": "(stereo partly drawn) [Compound No. 34, (S)-1-{4-[5-(acetylamino-methyl)-2-oxo-oxazolidin-3-yl]-2-fluoro-phenyl}-4-oxo-piperidin-3-carboxylic acid methyl ester]", "values": [{"measurement": "MIC", "setting": "[2]", "result": 4, "unit": "µg/mL"}, {"measurement": "MIC", "setting": "[3]", "result": 4, "unit": "µg/mL"}, {"measurement": "MIC", "setting": "Staphylococcus aureus; [5]", "result": 16, "unit": "µg/mL"}]}, {"smiles": "CC(=O)NC[C@H]1CN(c2ccc(N3CCC(=NNC(=O)CO)CC3)c(F)c2)C(=O)O1", "note": "[compound 50, (S)-N-[3-(3-fluoro-4-{4-[(2-hydroxy-acetyl)-hydrazono]-piperidin-1-yl}-phenyl)-2-oxo-oxazolidin-5-ylmethyl]-acetamide]", "values": [{"measurement": "MIC", "setting": "[2]", "result": 4, "unit": "µg/mL"}, {"measurement": "MIC", "setting": "[3]", "result": 4, "unit": "µg/mL"}, {"measurement": "MIC", "setting": "Staphylococcus aureus; [5]", "result": 16, "unit": "µg/mL"}]}, {"smiles": "COCOCCON=C1CCN(c2ccc(N3C[C@H](CNC(C)=O)OC3=O)cc2F)CC1", "note": "[compound 53, (S)-N-(3-{3-fluoro-4-[4-(2-methoxymethoxy-ethoxyimino)-piperidin-1-yl]-phenyl}-2-oxo-oxazolidin-5-ylmethyl)-acetamide]", "values": [{"measurement": "MIC", "setting": "[2]", "result": 2, "unit": "µg/mL"}, {"measurement": "MIC", "setting": "[3]", "result": 4, "unit": "µg/mL"}, {"measurement": "MIC", "setting": "Staphylococcus aureus; [5]", "result": 16, "unit": "µg/mL"}]}, {"smiles": "CC(=O)NC[C@H]1CN(c2ccc(N3CCCCC3)c(F)c2)C(=O)O1", "note": "[Compound No. 2, (S)-N-[3-(3-fluoro-4-piperidin-1-yl-phenyl)-2-oxo-oxazolidin-5-ylmethyl]-acetamide]", "values": [{"measurement": "MIC", "setting": "[2]", "result": 1, "unit": "µg/mL"}, {"measurement": "MIC", "setting": "[3]", "result": 4, "unit": "µg/mL"}, {"measurement": "MIC", "setting": "Staphylococcus aureus; [6]", "result": 8, "unit": "µg/mL"}]}, {"smiles": "CC(=O)NC[C@H]1CN(c2ccc(N3CCC(N(C)C)CC3)c(F)c2)C(=O)O1", "note": "[Compound No. 67, (S)-N-{3-[4-(4-dimethylamino-piperidin-1-yl)-3-fluoro-phenyl]-2-oxo-oxazolidin-5-ylmethyl}-acetamide]", "values": [{"measurement": "MIC", "setting": "[2]", "result": 2, "unit": "µg/mL"}, {"measurement": "MIC", "setting": "[3]", "result": 1, "unit": "µg/mL"}, {"measurement": "MIC", "setting": "Staphylococcus aureus; [5]", "result": 32, "unit": "µg/mL"}]}, {"smiles": "CC(=O)NC[C@H]1CN(c2ccc(N3CCC(=NOC(=O)COC(C)=O)CC3)c(F)c2)C(=O)O1", "note": "[compound 43, (S)-N-{3-[3-fluoro-4-(4-acetoxyacetoxyimino-piperidin-1-yl)-phenyl]-2-oxo-oxazolidin-5-ylmethyl}-acetamide]", "values": [{"measurement": "MIC", "setting": "[2]", "result": 0.5, "unit": "µg/mL"}, {"measurement": "MIC", "setting": "[3]", "result": 1, "unit": "µg/mL"}, {"measurement": "MIC", "setting": "Staphylococcus aureus; [5]", "result": 4, "unit": "µg/mL"}]}, {"smiles": "CC(=O)NC[C@H]1CN(c2ccc(N3CCC(N)CC3)c(F)c2)C(=O)O1", "note": "[Compound No. 6, (S)-N-{3-[4-(4-amino-piperidin-1-yl)-3-fluoro-phenyl]-2-oxo-oxazolidin-5-ylmethyl}-acetamide]", "values": [{"measurement": "MIC", "setting": "[2]", "result": 32, "unit": "µg/mL"}, {"measurement": "MIC", "setting": "[3]", "result": 1, "unit": "µg/mL"}, {"measurement": "MIC", "setting": "Staphylococcus aureus; [5]", "result": "> 64", "unit": "µg/mL"}]}, {"smiles": "CC(=O)NC[C@H]1CN(c2ccc(N3CCC4(CC3)OCCN4C(=O)CO)c(F)c2)C(=O)O1", "note": "[Compound No. 54, (S)-N-(3-{3-fluoro-4-[4-(2-hydroxy-acetyl)-1-oxa-4,8-diaza-spiro[4.5]dec-8-yl]-phenyl}-2-oxo-oxazolidin-5-ylmethyl)-acetamide]", "values": [{"measurement": "MIC", "setting": "[2]", "result": 4, "unit": "µg/mL"}, {"measurement": "MIC", "setting": "[3]", "result": 4, "unit": "µg/mL"}, {"measurement": "MIC", "setting": "Staphylococcus aureus; [5]", "result": 16, "unit": "µg/mL"}]}, {"smiles": "CC(=O)NC[C@H]1CN(c2ccc(N3CCC(=NNC(N)=O)CC3)c(F)c2)C(=O)O1", "note": "[compound 39, (S)-N-{3-[3-fluoro-4-(4-semicarbazono-piperidin-1-yl)-phenyl]-2-oxo-oxazolidin-5-ylmethyl}-acetamide]", "values": [{"measurement": "MIC", "setting": "[2]", "result": 0.5, "unit": "µg/mL"}, {"measurement": "MIC", "setting": "[3]", "result": 2, "unit": "µg/mL"}, {"measurement": "MIC", "setting": "Staphylococcus aureus; [5]", "result": 2, "unit": "µg/mL"}]}, {"smiles": "CC(=O)NC[C@H]1CN(c2ccc(N3CCC(O)CC3)c(F)c2)C(=O)O1", "note": "[Compound No. 3, (S)-N-{3-[3-fluoro-4-(4-hydroxy-piperidin-1-yl)-phenyl]-2-oxo-oxazolidin-5-ylmethyl}-acetamide]", "values": [{"measurement": "MIC", "setting": "[2]", "result": 2, "unit": "µg/mL"}, {"measurement": "MIC", "setting": "[4]", "result": 1, "unit": "µg/mL"}, {"measurement": "MIC", "setting": "[3]", "result": 2, "unit": "µg/mL"}, {"measurement": "MIC", "setting": "Staphylococcus aureus; [5]", "result": 8, "unit": "µg/mL"}]}, {"smiles": "COC(=O)NN=C1CCN(c2ccc(N3C[C@H](CNC(C)=O)OC3=O)cc2F)CC1", "note": "[Compound No. 31, (S)-N-{3-[3-fluoro-4-(4-methoxycarbonylhydrazono-piperidin-1-yl)-phenyl]-2-oxo-oxazolidin-5-ylmethyl}-acetamide]", "values": [{"measurement": "ED50", "setting": "[1]", "result": 5, "unit": "mg/kg"}, {"measurement": "MIC", "setting": "[2]", "result": 0.5, "unit": "µg/mL"}, {"measurement": "MIC", "setting": "[3]", "result": 1, "unit": "µg/mL"}, {"measurement": "MIC", "setting": "Staphylococcus aureus; [5]", "result": 2, "unit": "µg/mL"}]}, {"smiles": "CC(=O)NC[C@H]1CN(c2ccc(N3CCC(=NOC(=O)COCc4ccccc4)CC3)c(F)c2)C(=O)O1", "note": "[compound 45, (S)-N-{3-[3-fluoro-4-(4-benzyloxyacetoxyimino-piperidin-1-yl)-phenyl]-2-oxo-oxazolidin-5-ylmethyl}-acetamide]", "values": [{"measurement": "MIC", "setting": "[2]", "result": 0.5, "unit": "µg/mL"}, {"measurement": "MIC", "setting": "[3]", "result": 2, "unit": "µg/mL"}, {"measurement": "MIC", "setting": "Staphylococcus aureus; [5]", "result": 2, "unit": "µg/mL"}]}, {"smiles": "COCCNC1CCN(c2ccc(N3C[C@H](CNC(C)=O)OC3=O)cc2F)CC1", "note": "[compound 64, (S)-N-(3-{3-fluoro-4-[4-(2-methoxy-ethylamino)-piperidin-1-yl]-phenyl}-2-oxo-oxazolidin-5-ylmethyl)-acetamide]", "values": [{"measurement": "MIC", "setting": "[2]", "result": 2, "unit": "µg/mL"}, {"measurement": "MIC", "setting": "[3]", "result": 1, "unit": "µg/mL"}, {"measurement": "MIC", "setting": "Staphylococcus aureus; [5]", "result": 32, "unit": "µg/mL"}]}, {"smiles": "CC(=O)NC[C@H]1CN(c2ccc(N3CCC(CO)CC3)c(F)c2)C(=O)O1", "note": "[Compound No. 4, (S)-N-{3-[3-fluoro-4-(4-hydroxymethyl-piperidin-1-yl)-phenyl]-2-oxo-oxazolidin-5-ylmethyl}-acetamide]", "values": [{"measurement": "MIC", "setting": "[2]", "result": 2, "unit": "µg/mL"}, {"measurement": "MIC", "setting": "[3]", "result": 2, "unit": "µg/mL"}, {"measurement": "MIC", "setting": "Staphylococcus aureus; [5]", "result": 8, "unit": "µg/mL"}]}, {"smiles": "CC(=O)NC[C@H]1CN(c2ccc(N3CCC(=NNCCO)CC3)c(F)c2)C(=O)O1", "note": "[compound 41, (S)-N-[3-(3-fluoro-4-{4-[(2-hydroxy-ethyl)-hydrazono]-piperidin-1-yl}-phenyl)-2-oxo-oxazolidin-5-ylmethyl]-acetamide]", "values": [{"measurement": "MIC", "setting": "[2]", "result": 0.5, "unit": "µg/mL"}, {"measurement": "MIC", "setting": "[3]", "result": 1, "unit": "µg/mL"}, {"measurement": "MIC", "setting": "Staphylococcus aureus; [5]", "result": 4, "unit": "µg/mL"}]}]}
